In US12331046B2, “CTPS1 inhibitors and uses thereof” (Nimbus Clotho, Inc., priority 2020, dated 2025):

Biological target: human CTPS1 (Homo sapiens (Human), UniProt P17812)
Assay: hCTPS1 biochemical assay (ADP-Glo)
Settings: hCTPS1 25 nM, ATP 120 uM, UTP 160 uM, GTP 60 uM, L-Glutamine 100 uM, 25 degrees C

Sequence of human CTPS1 (P17812 whole entry): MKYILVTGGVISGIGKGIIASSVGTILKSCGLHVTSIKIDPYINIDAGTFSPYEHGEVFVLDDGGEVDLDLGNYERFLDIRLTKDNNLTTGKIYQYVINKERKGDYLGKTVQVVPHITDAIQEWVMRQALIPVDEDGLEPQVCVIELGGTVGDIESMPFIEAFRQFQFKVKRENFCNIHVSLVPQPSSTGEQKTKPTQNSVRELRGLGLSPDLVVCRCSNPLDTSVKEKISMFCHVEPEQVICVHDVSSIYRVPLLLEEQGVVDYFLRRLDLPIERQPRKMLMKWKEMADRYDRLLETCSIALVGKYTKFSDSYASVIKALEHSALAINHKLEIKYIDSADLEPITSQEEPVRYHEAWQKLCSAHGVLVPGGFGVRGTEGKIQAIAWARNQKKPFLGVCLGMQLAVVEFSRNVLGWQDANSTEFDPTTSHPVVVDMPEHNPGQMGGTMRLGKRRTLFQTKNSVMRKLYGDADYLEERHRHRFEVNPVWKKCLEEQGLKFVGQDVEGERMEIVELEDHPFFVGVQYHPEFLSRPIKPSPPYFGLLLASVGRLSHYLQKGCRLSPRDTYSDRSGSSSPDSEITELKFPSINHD

SMILES	IC50 [nM]
CCOc1cncc(-c2ccc(C(=O)NCc3cc(NS(=O)(=O)C4CC4)cnn3)cc2)n1 [I-52, N-[(5-cyclopropanesulfonamidopyridazin-3-yl)methyl]-4-(6-ethoxypyrazin-2-yl) benzamide]	< 100
CCOc1cncc(N2CCN(C(=O)NCc3cc(NS(=O)(=O)C4CC4)ccn3)CC2)n1 [I-27]	100 to 1000
CCOc1cncc(-c2sc(C(=O)N[C@@H](CC)c3cc(NS(=O)(=O)C4CC4)ccn3)nc2C)n1 [I-219, (S)—N-(1-(4-(cyclopropanesulfonamido)pyridin-2-yl)propyl)-5-(6-ethoxypyrazin-2-yl)-4-methylthiazole-2-carboxamide]	< 100
CCOc1cncc(-c2ccc(C(=O)N3CCCC3c3ccnc(NS(=O)(=O)C4CC4)n3)nc2)n1 (stereo in doubt) [I-34, N-[4-[(2S)-1-[5-(6-ethoxypyrazin-2-yl)pyridine-2-carbonyl]pyrrolidin-2-yl]pyrimidin-2-yl]cyclopropanesulfonamide]	< 100
CCOc1cncc(-c2cnc(C(=O)N[C@@H](C[C@@H]3CCCCN3)c3cc(NS(=O)(=O)C4CC4)ccn3)s2)n1 (single isomer, unassigned) [I-139]	< 100
CCOc1cncc(-c2ccc3c(c2)CN(C(CC)c2csc(NS(=O)(=O)C4CC4)n2)C3=O)n1 (stereo not shown) [I-6, N-(4-(1-(5-(6-ethoxypyrazin-2-yl)-1-oxoisoindolin-2-yl)propyl)thiazol-2-yl)cyclopropanesulfonamide]	< 100
CCOc1cncc(-c2ccc(C(=O)NC3(c4cccc(NS(=O)(=O)C(F)F)c4)CC3)nc2)n1 [I-265, N-[1-[3-(difluoromethanesulfonamido)phenyl]cyclopropyl]-5-(6-ethoxypyrazin-2-yl)pyridine-2-carboxamide]	< 100
CCOc1cncc(-c2cnc(C(=O)N[C@@H](CN3[C@H](C)COC[C@@H]3C)c3cc(NS(=O)(=O)C4CC4)ccn3)s2)n1 (single isomer, unassigned) [I-109]	< 100
CCOc1cncc(-c2cnc(C(=O)N[C@@H](CN3CCCC3)c3cc(NS(=O)(=O)C4CC4)ccn3)s2)n1 [I-198, (S)—N-(1-(4-(cyclopropanesulfonamido)pyridin-2-yl)-2-(pyrrolidin-1-yl)ethyl)-5-(6-ethoxypyrazin-2-yl)thiazole-2-carboxamide]	< 100
CCOc1cncc(-c2cnc(C(=O)N3CCOCC3c3cc(NS(=O)(=O)C4CC4)ccn3)s2)n1 (stereo not shown) [I-209, N-(2-{4-[5-(6-ethoxypyrazin-2-yl)-1,3-thiazole-2-carbonyl]morpholin-3-yl}pyridin-4-yl)cyclopropanesulfonamide]	< 100
O=C(NCc1cc(NS(=O)(=O)C2CC2)ccn1)c1ncc(-c2cnc3ccc(Cl)cn23)s1 [I-170]	100 to 1000
CCOc1cncc(-c2cnc(C(=O)N[C@@H](CN3CC(F)C3)c3cc(NS(=O)(=O)C4CC4)ccn3)s2)n1 (single isomer, unassigned) [I-203]	< 100
CCOc1cncc(-c2cnc(C(=O)N3CCCC3c3cncc(NS(=O)(=O)C4CC4)c3)s2)n1 (stereo not shown) [I-232, N-(5-(1-(5-(6-ethoxypyrazin-2-yl)thiazole-2-carbonyl)pyrrolidin-2-yl)pyridin-3-yl)cyclopropanesulfonamide]	< 100
O=C(NCc1cc(NS(=O)(=O)C2CC2)ccn1)c1ncc(-c2cnc3[nH]cc(CC(F)F)c3n2)s1 [I-215]	< 100
CCOc1cncc(-c2cnc(C(=O)NC(C)(CCOC)c3cc(NS(=O)(=O)C4CC4)ccn3)s2)n1 (stereo not shown) [I-178]	100 to 1000
CC[C@H](NC(=O)c1ncc(-c2cnn3ccc(Cl)cc23)s1)c1cc(NS(=O)(=O)C2CC2)ccn1 [I-150, (S)-5-(5-chloropyrazolo[1,5-a]pyridin-3-yl)-N-(1-(4-(cyclopropanesulfonamido)pyridin-2-yl)propyl)thiazole-2-carboxamide]	< 100
CCOc1cncc(-c2ccc(C(=O)NCc3cc(NS(=O)(=O)C4CC4)ccn3)cc2)n1 [I-15, N-((4-(cyclopropanesulfonamido)pyridin-2-yl)methyl)-4-(6-ethoxypyrazin-2-yl) benzamide]	< 100
CCOc1cncc(-c2cnc(C(=O)N[C@H](CC3CCN(C)CC3)c3cc(NS(=O)(=O)C4CC4)ccn3)s2)n1 [I-100, (R)—N-(1-(4-(cyclopropanesulfonamido)pyridin-2-yl)-2-(1-methylpiperidin-4-yl)ethyl)-5-(6-ethoxypyrazin-2-yl)thiazole-2-carboxamide]	< 100
CCOc1cncc(-c2cnc(C(=O)N[C@@H](CN3CCC(N(C)C)CC3)c3cc(NS(=O)(=O)C4CC4)ccn3)s2)n1 (single isomer, unassigned) [I-104]	< 100

SMILES	IC50 [nM]
CCOc1cncc(-c2cnc(C(=O)N[C@H](c3cc(NS(=O)(=O)C4CC4)ccn3)C3CCN(C)CC3)s2)n1 [I-148, (S)—N-((4-(cyclopropanesulfonamido)pyridin-2-yl)(1-methylpiperidin-4-yl)methyl)-5-(6-ethoxypyrazin-2-yl)thiazole-2-carboxamide]	< 100
CCOc1cncc(-c2cnc(C(=O)N[C@H](C[C@H]3CCCCN3)c3cc(NS(=O)(=O)C4CC4)ccn3)s2)n1 [I-172, N—((R)-1-(4-(cyclopropanesulfonamido)pyridin-2-yl)-2-((R)-piperidin-2-yl)ethyl)-5-(6-ethoxypyrazin-2-yl)thiazole-2-carboxamide]	< 100
CCOc1cncc(-c2ccc(C(=O)NCc3cccc(NS(=O)(=O)C(F)F)c3)nc2)n1 [I-63, N-[[3-(difluoromethanesulfonamido)phenyl]methyl]-5-(6-ethoxypyrazin-2-yl)pyridine-2-carboxamide]	< 100
CCOc1cncc(-c2ccc(C(=O)N[C@@H](CC)c3cc(NS(=O)(=O)C4CC4)ccn3)c(F)c2)n1 [I-73]	< 100
CCOc1cncc(-c2cnc(C(=O)N[C@@H](CCOC)c3cc(NS(=O)(=O)C4CC4)ccn3)s2)n1 [I-183, (S)—N-(1-(4-(cyclopropanesulfonamido)pyridin-2-yl)-3-methoxypropyl)-5-(6-ethoxypyrazin-2-yl)thiazole-2-carboxamide]	< 100
CCOc1cncc(-c2cnc(C(=O)N[C@@H](CCN3CCCCC3)c3cc(NS(=O)(=O)C4CC4)ccn3)s2)n1 [I-161, (S)—N-(1-(4-(cyclopropanesulfonamido)pyridin-2-yl)-3-(piperidin-1-yl)propyl)-5-(6-ethoxypyrazin-2-yl)thiazole-2-carboxamide]	< 100
Cc1c(-c2ccc(C(=O)NC3(c4csc(NS(=O)(=O)C5CC5)n4)CC3)cc2)cnn1C [I-261, N-[1-(2-cyclopropanesulfonamido-1,3-thiazol-4-yl)cyclopropyl]-4-(1,5-dimethylpyrazol-4-yl)benzamide]	≥ 1000
O=C(NCc1cc(NS(=O)(=O)C2CC2)ccn1)c1ncc(-n2cnc3ccc(Cl)cc32)s1 [I-193, 5-(6-chloro-1H-benzo[d]imidazol-1-yl)-N-((4-(cyclopropanesulfonamido)pyridin-2-yl)methyl)thiazole-2-carboxamide]	100 to 1000
O=C(NCc1cc(NS(=O)(=O)C2CC2)ccn1)c1ncc(-c2cncc3c(Cl)cnn23)s1 [I-154]	< 100
CCOc1cncc(-c2cnc(C(=O)N[C@@H](C[C@@H]3CCCCN3C)c3cc(NS(=O)(=O)C4CC4)ccn3)s2)n1 (single isomer, unassigned) [I-134]	100 to 1000
Cc1cn2cc(-c3ccc(C(=O)NCc4cc(NS(=O)(=O)C5CC5)ccn4)nc3)cnc2n1 [I-31]	≥ 1000
CC(C)Oc1cncc(-c2ccc(C(=O)NCc3cc(NS(=O)(=O)C4CC4)ccn3)cc2)n1 [I-33]	< 100
CC[C@@H](NC(=O)c1ncc(-c2cnn3ccc(Cl)cc23)s1)c1cc(NS(=O)(=O)C2CC2)ccn1 [I-151, (R)-5-(5-chloropyrazolo[1,5-a]pyridin-3-yl)-N-(1-(4-(cyclopropanesulfonamido)pyridin-2-yl)propyl)thiazole-2-carboxamide]	< 100
O=C(NC1(c2csc(NS(=O)(=O)C3CC3)n2)CC1)c1ccc2cnccc2c1 [I-4, N-(1-(2-(cyclopropanesulfonamido)thiazol-4-yl)cyclopropyl)isoquinoline-6-carboxamide]	≥ 1000
CCOc1cncc(-c2cnc(C(=O)N[C@@H](CC)c3cc(NS(=O)(=O)C4CC4)ccn3)s2)n1 [I-278]	< 100
CCOc1cncc(-c2cnc(C(=O)NC(CN3CCCCC3)c3cc(NS(=O)(=O)C4CC4)ccn3)s2)n1 (stereo not shown) [I-224]	< 100
CCOc1cncc(-c2ccc(C(=O)N3CCC[C@H]3c3ccnc(NS(=O)(=O)C4CC4)n3)c(F)c2)n1 [I-286, N-[4-[(2S)-1-[4-(6-ethoxypyrazin-2-yl)-2-fluorobenzoyl]pyrrolidin-2-yl]pyrimidin-2-yl]cyclopropanesulfonamide]	< 100
CCOc1cncc(-c2cnc(C(=O)NC(C)(C)c3cccc(NS(=O)(=O)C(F)F)c3)s2)n1 [I-262, N-{2-[3-(difluoromethanesulfonamido)phenyl]propan-2-yl}-5-(6-ethoxypyrazin-2-yl)-1,3-thiazole-2-carboxamide]	< 100
